These results are taken from PMC10877733, “Discovery and Characterization of VU0542270, the First Selective Inhibitor of Vascular Kir6.1/SUR2B KATP Channels” (Molecular Pharmacology, 2024).

pIC50: −log10 of the molar value. Entries after “also recorded” stand apart in the source; their conditions may differ.

One data set addresses T1, Kir3.1/Kir3.2 (Homo sapiens, UniProt P48051+P48549).
T1 construct: expressed in transfected cells
T1 sequence (P48549 1-501): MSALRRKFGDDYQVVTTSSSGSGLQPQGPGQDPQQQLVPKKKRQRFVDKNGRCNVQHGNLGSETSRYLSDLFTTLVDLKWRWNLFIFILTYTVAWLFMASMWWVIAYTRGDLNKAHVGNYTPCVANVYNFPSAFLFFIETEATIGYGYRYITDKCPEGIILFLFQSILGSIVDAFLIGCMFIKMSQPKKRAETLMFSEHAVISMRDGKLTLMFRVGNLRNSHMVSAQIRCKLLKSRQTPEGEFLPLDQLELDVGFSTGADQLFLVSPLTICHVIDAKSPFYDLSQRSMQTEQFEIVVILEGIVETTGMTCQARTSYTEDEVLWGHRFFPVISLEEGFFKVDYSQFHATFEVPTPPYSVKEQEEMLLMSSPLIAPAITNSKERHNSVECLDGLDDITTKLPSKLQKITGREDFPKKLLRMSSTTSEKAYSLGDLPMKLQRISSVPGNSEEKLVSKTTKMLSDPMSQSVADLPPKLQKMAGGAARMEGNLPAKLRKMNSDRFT
T1 sequence (P48051 1-423): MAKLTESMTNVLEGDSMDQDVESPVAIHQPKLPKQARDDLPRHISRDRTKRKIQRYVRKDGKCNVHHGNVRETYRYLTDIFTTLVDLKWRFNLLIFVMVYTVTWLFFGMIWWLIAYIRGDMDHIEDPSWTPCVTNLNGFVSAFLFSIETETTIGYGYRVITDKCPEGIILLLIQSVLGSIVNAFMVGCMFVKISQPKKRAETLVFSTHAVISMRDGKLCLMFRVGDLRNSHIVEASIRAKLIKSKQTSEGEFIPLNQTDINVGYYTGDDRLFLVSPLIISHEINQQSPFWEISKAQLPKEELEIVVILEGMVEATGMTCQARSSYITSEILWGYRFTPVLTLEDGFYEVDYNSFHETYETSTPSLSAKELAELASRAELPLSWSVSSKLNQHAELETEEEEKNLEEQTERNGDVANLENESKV
Nature of the data set: Thallium flux selectivity assay Kir3.1/Kir3.2. In kind it is cell-based. How it is done:
Quantitative thallium flux assays of Kir6.1/SUR2B activity were performed essentially as described previously for Kir6.2/SUR1 ([Raphemot et al., 2014]; [Kharade et al., 2019]). Stable T-Rex-HEK293-Kir6.1/SUR2B cells or transiently transfected HEK293T cells were plated in polyamine-coated, clear-bottomed, black-walled 384-well plates and were cultured (37°C/5% CO2) overnight in Dulbecco’s modified Eagle’s medium (Gibco, Carlsbad, CA, 11995-065) containing 10% FBS (2 mM Penicillin-Streptomycin). The following day, cells were washed with assay buffer (i.e., Hanks’ balanced salt solution/20 mM HEPES) and loaded for 1 hour with thallium sensor dye Brilliant Thallium (Ion Bioscience, San Marcos, TX) at room temperature. Dye-loaded cells were washed with assay buffer and transferred to a Panoptic Kinetic Imaging Plate Reader (Wavefront Bioscience, Franklin, TN). Control and test compound treatments were for 4 minutes prior to adding 0.5 mM chloride-free thallium stimulus buffer (Ion Bioscience) to initiate thallium flux. […] Selectivity assays against other Kir channels were performed essentially as described previously ([Kharade et al., 2018]; [McClenahan et al., 2022]).

Another data set deals with T2, Kir6.2/SUR1 (Homo sapiens, UniProt Q09428).
T2 construct: expressed in transfected cells; also transiently transfected HEK293T
Nature of the data set: Thallium flux assay of Kir6.2/SUR1 in HEK293 cells. The class given is cell-based. How it is done:
The pcDNA3.1-SUR2B plasmid was generously provided by Dr. Colin Nichols (Washington University). The pcDNA5/TO-Kir6.1 plasmid was synthesized by GenScript. […] For selectivity assays, HEK293T cells were cotransfected with Kir6.x and SURX with Lipofectamine LTX and incubated for 48 hours before thallium flux assays.
Stable T-Rex-HEK293-Kir6.1/SUR2B cells or transiently transfected HEK293T cells were plated in polyamine-coated, clear-bottomed, black-walled 384-well plates and were cultured (37°C/5% CO2) overnight in Dulbecco’s modified Eagle’s medium (Gibco, Carlsbad, CA, 11995-065) containing 10% FBS (2 mM Penicillin-Streptomycin). The following day, cells were washed with assay buffer (i.e., Hanks’ balanced salt solution/20 mM HEPES) and loaded for 1 hour with thallium sensor dye Brilliant Thallium (Ion Bioscience, San Marcos, TX) at room temperature. Dye-loaded cells were washed with assay buffer and transferred to a Panoptic Kinetic Imaging Plate Reader (Wavefront Bioscience, Franklin, TN). Control and test compound treatments were for 4 minutes prior to adding 0.5 mM chloride-free thallium stimulus buffer (Ion Bioscience) to initiate thallium flux.

Data set [1] in a line: Intrinsic clearance in liver microsomes, human. In kind it is in vitro ADME. How it is done: The in vitro intrinsic clearance (CLint) of VU0542270 was investigated in commercially obtained hepatic microsomes from rat, mouse, and human donors using the substrate depletion (i.e., loss-of-parent versus time, or t1/2 method) approach with analyte detection via LC-MS/MS. For each species, mean per cent parent remaining values at each time point were calculated from replicates raw data (analyte:IS peak area ratios) and used to determine in vitro t1/2 and CLint.
Experiments were carried out using a robot-assisted liquid handling system (TECAN model Evo 200). VU0542270 was incubated (1 µM final concentration) in buffer (100 mM potassium phosphate, pH 7.4, with 3 mM MgCl2) containing hepatic microsomes (0.5 mg/mL final concentration) from multiple species, discretely, at 37°C under constant orbital shaking. After 5 minutes (preincubation), reactions were initiated by the addition of NADPH (1 mM final concentration). At selected time intervals (0, 3, 7, 15, 25, and 45 minutes) post addition of NADPH, aliquots (50 µL) were taken and placed into a 96-shallow-well plate containing ice-cold acetonitrile (150 µL) with carbamazepine (IS, 50 nM). The plates were then centrifuged (3000 rcf at 4°C) for 10 minutes. […]
Predicted hepatic clearance (CLhep) was calculated using the following equation: [drawing 4] […]
In general terms: Liver microsomes are vesicles of endoplasmic reticulum, rich in cytochrome P450 enzymes.

T2 sequence (Q09428 whole entry, species assumed): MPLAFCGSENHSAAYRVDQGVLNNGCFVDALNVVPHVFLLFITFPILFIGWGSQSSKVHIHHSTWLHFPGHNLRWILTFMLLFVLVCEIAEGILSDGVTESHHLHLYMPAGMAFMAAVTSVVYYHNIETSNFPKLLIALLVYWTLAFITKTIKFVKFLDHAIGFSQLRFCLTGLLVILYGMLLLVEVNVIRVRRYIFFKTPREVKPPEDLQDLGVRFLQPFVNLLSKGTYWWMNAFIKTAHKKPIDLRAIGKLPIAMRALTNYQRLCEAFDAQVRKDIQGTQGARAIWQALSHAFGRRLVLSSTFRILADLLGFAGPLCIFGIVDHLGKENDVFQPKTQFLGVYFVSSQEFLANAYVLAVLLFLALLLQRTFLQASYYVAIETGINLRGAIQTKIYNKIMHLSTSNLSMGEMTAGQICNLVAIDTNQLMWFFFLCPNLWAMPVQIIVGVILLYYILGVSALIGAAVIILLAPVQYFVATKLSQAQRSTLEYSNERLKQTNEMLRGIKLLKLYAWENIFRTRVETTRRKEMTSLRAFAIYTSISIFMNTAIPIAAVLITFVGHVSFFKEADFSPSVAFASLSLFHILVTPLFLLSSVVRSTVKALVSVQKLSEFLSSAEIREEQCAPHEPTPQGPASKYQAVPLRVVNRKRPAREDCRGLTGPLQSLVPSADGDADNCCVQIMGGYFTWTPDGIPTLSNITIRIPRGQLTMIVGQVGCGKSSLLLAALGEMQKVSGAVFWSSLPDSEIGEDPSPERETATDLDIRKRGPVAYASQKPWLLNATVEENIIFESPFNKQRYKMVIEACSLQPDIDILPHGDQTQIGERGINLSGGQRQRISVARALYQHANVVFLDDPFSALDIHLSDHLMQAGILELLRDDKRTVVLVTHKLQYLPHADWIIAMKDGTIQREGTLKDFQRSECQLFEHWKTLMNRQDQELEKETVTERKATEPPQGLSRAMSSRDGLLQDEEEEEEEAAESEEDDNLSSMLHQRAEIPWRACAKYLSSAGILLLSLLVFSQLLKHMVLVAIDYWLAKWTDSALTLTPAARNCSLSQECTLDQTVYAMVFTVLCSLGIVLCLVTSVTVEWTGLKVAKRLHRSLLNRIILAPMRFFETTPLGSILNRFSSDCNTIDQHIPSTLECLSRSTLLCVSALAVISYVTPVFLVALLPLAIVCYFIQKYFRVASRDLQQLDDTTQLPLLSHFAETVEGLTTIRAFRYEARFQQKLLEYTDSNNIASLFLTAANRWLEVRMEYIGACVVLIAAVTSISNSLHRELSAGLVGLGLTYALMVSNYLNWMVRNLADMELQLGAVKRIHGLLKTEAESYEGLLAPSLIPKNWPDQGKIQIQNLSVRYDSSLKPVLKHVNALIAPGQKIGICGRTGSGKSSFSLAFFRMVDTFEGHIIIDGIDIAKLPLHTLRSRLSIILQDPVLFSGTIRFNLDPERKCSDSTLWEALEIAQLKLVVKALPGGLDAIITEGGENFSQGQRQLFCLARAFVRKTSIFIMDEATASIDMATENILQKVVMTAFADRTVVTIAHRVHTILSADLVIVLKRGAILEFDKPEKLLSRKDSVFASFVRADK
T2 sequence (Q14654 whole entry partner, species assumed): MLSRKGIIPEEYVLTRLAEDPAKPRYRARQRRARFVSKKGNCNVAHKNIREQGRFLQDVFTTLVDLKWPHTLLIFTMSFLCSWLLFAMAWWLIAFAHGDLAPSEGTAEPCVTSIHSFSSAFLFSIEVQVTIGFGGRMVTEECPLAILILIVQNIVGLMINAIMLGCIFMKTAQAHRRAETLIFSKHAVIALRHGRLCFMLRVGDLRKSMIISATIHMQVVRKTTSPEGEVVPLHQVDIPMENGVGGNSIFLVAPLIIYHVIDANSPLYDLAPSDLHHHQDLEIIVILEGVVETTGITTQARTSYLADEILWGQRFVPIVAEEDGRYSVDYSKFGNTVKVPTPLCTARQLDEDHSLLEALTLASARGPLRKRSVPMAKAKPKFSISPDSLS

What is called pIC50 is the IC50 on a negative log10 scale, so that one unit is a factor of ten. For the compound `Cc1nc(-c2cccs2)sc1CNC(=O)Nc1cccs1` [VU0542270], the negative logarithm of the IC50 (pIC50) against Kir3.1/Kir3.2 was less than 4.52; against Kir6.2/SUR1 (thallium flux, Table 1 selectivity profile) it was less than 4.52. Also, at Kir6.2/SUR1 (doses up to 30 µM), the “activity toward Kir6.2/SUR1” value is reported as “no apparent activity”. For the same compound, the “Kir6.2/SUR1 IC50, ATP depletion” value at Kir6.2/SUR1 (thallium flux, transfected HEK-293 cells, channels activated by metabolic inhibition (ATP depletion) (Fig. 4B)) is reported as “failed to inhibit; also recorded: no fit”. At Kir6.2/SUR1 (thallium flux, transfected HEK-293 cells, channels activated with VU0071063 (Fig. 4A)), the “Kir6.2/SUR1 IC50, VU0071063 activation” value is “failed to inhibit; also recorded: no fit”. In data set [1] (corrected to plasma unbound fraction), the “Predicted CLhep,u (human)” value was 1.3 mL/min per kg. Further, the “Predicted CLhep (human)” value in data set [1] (from microsomal CLint) was 19 mL/min per kg.
